Source: PMC8972196, “A Set of Experimentally Validated Decoys for the Human CC Chemokine Receptor 7 (CCR7) Obtained by Virtual Screening” (Frontiers in Pharmacology, 2022)
Where two headings read alike, the source gives them in different places.

Biological target: T1, human CCR7 (Homo sapiens, UniProt P32248)
T1 construct: expressed in transfected cells
T1 sequence (P32248 25-378): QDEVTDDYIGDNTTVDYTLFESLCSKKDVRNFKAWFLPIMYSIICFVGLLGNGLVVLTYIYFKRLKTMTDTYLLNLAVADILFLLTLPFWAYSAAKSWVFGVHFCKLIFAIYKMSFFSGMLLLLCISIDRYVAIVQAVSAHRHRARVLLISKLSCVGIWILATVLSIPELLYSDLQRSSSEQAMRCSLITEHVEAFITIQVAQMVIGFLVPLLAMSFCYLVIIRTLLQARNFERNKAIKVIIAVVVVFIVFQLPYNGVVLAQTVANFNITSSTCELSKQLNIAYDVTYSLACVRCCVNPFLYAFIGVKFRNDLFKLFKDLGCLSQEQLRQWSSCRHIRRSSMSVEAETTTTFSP
Assay: CCL19-induced calcium mobilization assay, U87.CD4 cells expressing CCR7
Type: cell-based
Conditions: for IC50: read-out: IC50 [μM] block CCL19 induced calcium signaling
Description: U87.CD4 cells that stably express either human CCR7, CXCR2, CCR5 or CXCR4 were seeded (20,000 cells/well) in gelatin-coated black-walled polystyrene 96-well plates with clear bottom and incubated overnight at 37°C and 5% CO2. […] Culture medium was removed, and cells were incubated for 45 min at room temperature in the dark. […] Exactly the same protocol was used to record calcium responses in Chinese hamster ovary (CHO)-K1 cells, upon stimulation with adenosine triphosphate (ATP, purchased from Sigma).

[1] = CCL19 induced calcium signaling
[2] = classification as decoy or active on CCR7
[3] = CCL19-induced calcium signaling
[4] = classification of tested compounds as decoy or active

SMILES | IC50 [1] | Decoy – 0 Active – 1 [2] | IC50 [3] | Decoy – 0 Active – 1 [4]
Cc1ccc(C(=O)N2CCC3(CC2)CCC3(C)O)cc1N1CCCC1=O (stereo not drawn) [C224, Cc1ccc(C(=O)N2CCC3(CC2)CCC3(C)O)cc1N1CCCC1=O] | > 50 µM | 0 | – | –
CC[C@H](NC(=O)N(CCO)Cc1ccc(F)cc1)c1nc(C)no1 [C163, CC[C@H](NC(=O)N(CCO)Cc1ccc(F)cc1)c1nc(C)no1] | > 50 µM | 0 | – | –
Cc1ccc(S(=O)(=O)N(CCC(=O)NC(C)CO)c2ccccc2)cc1 (stereo not drawn) [C250, Cc1ccc(cc1)S(=O)(=O)N(CCC(=O)NC(C)CO)c2ccccc2] | > 50 µM | 0 | – | –
N=C(Nc1ccccc1)C(N)=Nc1ccccc1 [C068, NC(=[NH+]c1ccccc1)C(=[NH2+])Nc1ccccc1] | – | – | > 10 µM | 0
Cc1cc(NCCc2nccs2)nc(-c2cccc([N+](=O)[O-])c2)n1 [C097, Cc1cc(NCCc2nccs2)nc(-c2cccc([N+](=O)[O-])c2)n1] | – | – | > 50 µM | 0
COC(=O)/C(=C\NC(=S)N/C=C(/OC(=N)c1ccccc1)C(=O)OC)NC(=O)c1ccccc1 [C042, S=C(N/C=C(C(OC)=O)/NC(C1=CC=CC=C1)=O)N/C=C(C(OC)=O)/OC(C2=CC=CC=C2)=N] | – | – | > 30 µM | 0
CCc1cc(C(=O)NCC(O)c2ccc(O)cc2)cc(=O)[nH]1 (stereo not drawn) [C203, CCc1cc(C(=O)NCC(O)c2ccc(O)cc2)cc(=O)[nH]1] | > 50 µM | 0 | – | –
O=C1C[C@H](NC(=O)CCn2cccn2)CN1 [C145, O=C1C[C@H](NC(=O)CCn2cccn2)CN1] | – | – | > 50 µM | 0
Cc1ccc(N2C(=O)C3C(C(=O)O)NC(c4ccccc4O)C3C2=O)cc1 (stereo not drawn) [C186, Cc1ccc(N2C(=O)C3C(C(=O)[O-])[NH2+]C(c4ccccc4O)C3C2=O)cc1] | > 50 µM | 0 | – | –
C[C@@H](CNC(=O)Nc1ccnc(C(=O)N(C)C)c1)c1cccs1 [C119, C[C@@H](CNC(=O)Nc1ccnc(C(=O)N(C)C)c1)c1cccs1] | – | – | > 50 µM | 0
Cc1cnc([C@@H](C)CNC(=O)Nc2ccc3c(c2)S(=O)(=O)CC3)s1 [C113, Cc1cnc([C@@H](C)CNC(=O)Nc2ccc3c(c2)S(=O)(=O)CC3)s1] | – | – | > 50 µM | 0
CCOC(=O)c1sc2ncnc(NC[C@H]3CCCO3)c2c1C [C103, CCOC(=O)c1sc2ncnc(NC[C@H]3CCCO3)c2c1C] | – | – | > 50 µM | 0
COC(=O)c1ccc([C@H]2CC(=O)Nc3c2cnn3Cc2ccco2)cc1 [C158, COC(=O)c1ccc([C@H]2CC(=O)Nc3c2cnn3Cc2ccco2)cc1] | – | – | > 50 µM | 0
FC(F)(F)c1cccc(Cn2cnc(NC(=S)NCCc3ccccc3)n2)c1 [C027, FC(F)(F)c1cccc(Cn2cnc(NC(=S)NCCc3ccccc3)n2)c1] | – | – | > 30 µM | 0
CC[C@@H](NC(=O)c1cc(-c2cccc(OC)c2)n[nH]1)c1nc(C)c(C)s1 [C159, CC[C@@H](NC(=O)c1cc(-c2cccc(OC)c2)n[nH]1)c1nc(C)c(C)s1] | > 50 µM | 0 | – | –
O=C(O)c1ccc(CNC(=O)C2(c3ccc(Cl)cc3)CCC2)o1 [C185, O=C([O-])c1ccc(CNC(=O)C2(c3ccc(Cl)cc3)CCC2)o1] | > 50 µM | 0 | – | –
CC(C)(C)c1ccc(CN(Cc2ccccc2)Cc2nc(C(=O)N3CCOCC3)co2)cc1 [C243, CC(C)(C)c1ccc(cc1)C[NH+](Cc2ccccc2)Cc3nc(co3)C(=O)N4CCOCC4] | > 50 µM | 0 | – | –
CN(C)[C@H]1CCCC[C@@H]1Nc1c(NCc2cc(C(F)(F)F)cc(C(F)(F)F)c2)c(=O)c1=O [C020, O=C1C(N[C@H]2CCCC[C@@H]2N(C)C)=C(NCC3=CC(C(F)(F)F)=CC(C(F)(F)F)=C3)C1=O] | – | – | > 50 µM | 0
CN(Cc1ccccc1Cl)C(C(=O)O)c1ccc(F)c(CO)c1 (stereo not drawn) [C171, C[NH+](Cc1ccccc1Cl)C(C(=O)[O-])c1ccc(F)c(CO)c1] | > 50 µM | 0 | – | –
Cc1cccc(CN2CCC[C@H](Nc3ccc(C)c(C)c3)C2)n1 [C083, Cc1cccc(C[N@H+]2CCC[C@H](Nc3ccc(C)c(C)c3)C2)n1] | – | – | > 50 µM | 0
O=C(COc1ccccc1O)NCc1ccccc1Cl [C174, O=C(COc1ccccc1O)NCc1ccccc1Cl] | > 50 µM | 0 | – | –
Cc1ccc(S(=O)(=O)N(C)c2ccccc2C(=O)NCc2ccco2)cc1 [C240, Cc1ccc(cc1)S(=O)(=O)N(C)c2ccccc2C(=O)NCc3ccco3] | > 50 µM | 0 | – | –
O=S1(=O)N=C(NCCN2CCCC2)C(NCCN2CCCC2)=N1 [C150, O=S1(=O)N=C(NCC[NH+]2CCCC2)C(NCC[NH+]2CCCC2)=N1] | – | – | > 50 µM | 0
Cc1cccnc1C1(CNc2cc(N3CCC[C@H](CO)C3)ncn2)CC1 [C080, Cc1cccnc1C1(CNc2cc(N3CCC[C@H](CO)C3)ncn2)CC1] | – | – | > 50 µM | 0
Cc1ccccc1C(O)CNC(=O)NCCc1cccc(C(N)=O)c1 (stereo not drawn) [C217, Cc1ccccc1C(O)CNC(=O)NCCc1cccc(C(N)=O)c1] | > 50 µM | 0 | – | –
CC1CCc2ccccc2C1NC(=O)CCC(=O)N1CCC(O)CC1 (stereo not drawn) [C221, CC1CCc2ccccc2C1NC(=O)CCC(=O)N1CCC(O)CC1] | > 50 µM | 0 | – | –
COc1ccc(S(=O)(=O)N2CC(C(=O)Nc3ccccc3)Oc3ccccc32)cc1 (stereo not drawn) [C265, COc1ccc(cc1)S(=O)(=O)N2CC(Oc3c2cccc3)C(=O)Nc4ccccc4] | > 50 µM | 0 | – | –
CCOC(=O)NC(=S)Nc1ccccn1 [C047, S=C(NC1=NC=CC=C1)NC(OCC)=O] | – | – | > 30 µM | 0
CN1CCN(C(=O)c2ccc(CN(c3ccccc3)S(=O)(=O)c3ccccc3)cc2)CC1 [C234, C[NH+]1CCN(CC1)C(=O)c2ccc(cc2)CN(c3ccccc3)S(=O)(=O)c4ccccc4] | > 50 µM | 0 | – | –

Further lines, results first:

IC50 [1] | Decoy – 0 Active – 1 [2] | IC50 [3] | Decoy – 0 Active – 1 [4] | SMILES
> 50 µM | 0 | – | – | COc1ccc(S(=O)(=O)Nc2ccccc2C(=O)N2CCOCC2)cc1Br [C251, COc1ccc(cc1Br)S(=O)(=O)Nc2ccccc2C(=O)N3CCOCC3]
> 50 µM | 0 | – | – | O=C(NC1CCCCNC1=O)NC1CCSc2ccccc21 (stereo not drawn) [C202, O=C(NC1CCCCNC1=O)NC1CCSc2ccccc21]
> 50 µM | 0 | – | – | Cc1nc[nH]c1C(=O)NC1CC(=O)N(Cc2cccc3ccccc23)C1 (stereo not drawn) [C276, Cc1nc[nH]c1C(=O)NC1CC(=O)N(Cc2cccc3ccccc23)C1]
> 50 µM | 0 | – | – | CCN1CCCC1C1CCCN1C(=O)CCc1c[nH]c2ccccc12 (stereo not drawn) [C282, CCN1CCCC1C1CCCN1C(=O)CCc1c[nH]c2ccccc12]
– | – | > 50 µM | 0 | O=c1c(NCC2COc3ccccc3O2)c(N2CCSCC2)c1=O (stereo not drawn) [C003, O=c1c(NCC2COc3ccccc3O2)c(N2CCSCC2)c1=O]
> 50 µM | 0 | – | – | COc1ccc(C(=O)C2CCCN(Cc3cc4ccccc4[nH]3)C2)c(OC)c1 (stereo not drawn) [C273, COc1ccc(C(=O)C2CCCN(Cc3cc4ccccc4[nH]3)C2)c(OC)c1]
– | – | > 50 µM | 0 | Cc1c(C(=O)NCC2CC2)sc2ncnc(NCCc3ccccn3)c12 [C093, Cc1c(C(=O)NCC2CC2)sc2ncnc(NCCc3ccccn3)c12]
– | – | > 10 µM | 0 | CC1CCCCN1C(=O)CNc1cc(C(=O)N(C)C)ccc1Cl (stereo not drawn) [C074, CC1CCCCN1C(=O)CNc1cc(C(=O)N(C)C)ccc1Cl]
> 50 µM | 0 | – | – | CN(Cc1csc(-c2ccccc2)n1)C(=O)c1c[nH]c(=O)c(Cl)c1 [C232, CN(Cc1csc(-c2ccccc2)n1)C(=O)c1c[nH]c(=O)c(Cl)c1]
– | – | > 10 µM | 0 | CCNC(=O)c1cccc(NC(=O)CN(Cc2ccco2)C2CCCC2)c1 [C063, CCNC(=O)c1cccc(NC(=O)C[NH+](Cc2ccco2)C2CCCC2)c1]
– | – | > 50 µM | 0 | O=C1NC[C@H](C(=O)N(Cc2ccco2)C2CC2)N1 [C151, O=C1NC[C@H](C(=O)N(Cc2ccco2)C2CC2)N1]
> 50 µM | 0 | – | – | NC(=O)Nc1cccc(C(=O)NCc2ccccc2Cl)c1 [C173, NC(=O)Nc1cccc(C(=O)NCc2ccccc2Cl)c1]
> 50 µM | 0 | – | – | O=C(NCc1ccccc1N1CCOCC1)c1nc2ccccc2c(=O)[nH]1 [C201, O=C(NCc1ccccc1N1CCOCC1)c1nc2ccccc2c(=O)[nH]1]
– | – | > 50 µM | 0 | CCn1nccc1[C@H]1NC(=O)CC[C@H]1NC(=O)c1cc(C)n(C)n1 [C152, CCn1nccc1[C@H]1NC(=O)CC[C@H]1NC(=O)c1cc(C)n(C)n1]
> 50 µM | 0 | – | – | Cc1ccn(C)c(=O)c1NC(=O)NC1CCCc2ccc(Cl)cc21 (stereo not drawn) [C196, Cc1ccn(C)c(=O)c1NC(=O)NC1CCCc2ccc(Cl)cc21]
– | – | > 50 µM | 0 | O=S1(=O)C[C@H](Nc2ccc(Cl)cc2)[C@H](NCc2ccccc2)C1 [C122, O=S1(=O)C[C@@H](NCc2ccccc2)[C@@H](Nc2ccc(Cl)cc2)C1]
